Assay results reported in the supplement of paper PMC11451515.

Test system: P12-Ichikawa
Test: cell viability relative to DMSO control; higher = less cytotoxic
Details: 48 h
Summary of the method: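 NOMO1 or SEM (500 cells/well) or P12-Ichikawa (1000 cells/well) leukemia cells were adapted for at least four passages in each medium. They were seeded in 1536-well plates (5 μl) and pin-dosed with library compounds in DMSO over an 11-point threefold series, 47 μM to 0.79 nM. CellTiter-Glo One luminescence was read after 48 h at 37°C. Viability is the per-plate percentage relative to DMSO wells, with cell-free wells as background.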

[1] = HPLM + 10% dialyzed FBS, 0.000781 µM
[2] = HPLM + 10% dialyzed FBS, 0.00234 µM
[3] = HPLM + 10% dialyzed FBS, 0.00702 µM
[4] = HPLM + 10% dialyzed FBS, 0.0211 µM
[5] = HPLM + 10% dialyzed FBS, 0.0632 µM
[6] = HPLM + 10% dialyzed FBS, 0.19 µM
[7] = HPLM + 10% dialyzed FBS, 0.569 µM
[8] = HPLM + 10% dialyzed FBS, 1.71 µM
[9] = HPLM + 10% dialyzed FBS, 5.12 µM
[10] = HPLM + 10% dialyzed FBS, 15.4 µM
[11] = HPLM + 10% dialyzed FBS, 46.1 µM
[12] = RPMI 5 mM glucose + 10% FBS, 0.000781 µM
[13] = RPMI 5 mM glucose + 10% FBS, 0.00234 µM
[14] = RPMI 5 mM glucose + 10% FBS, 0.00702 µM
[15] = RPMI 5 mM glucose + 10% FBS, 0.0211 µM
[16] = RPMI 5 mM glucose + 10% FBS, 0.0632 µM
[17] = RPMI 5 mM glucose + 10% FBS, 0.19 µM
[18] = RPMI 5 mM glucose + 10% FBS, 0.569 µM
[19] = RPMI 5 mM glucose + 10% FBS, 1.71 µM
[20] = RPMI 5 mM glucose + 10% FBS, 5.12 µM
[21] = RPMI 5 mM glucose + 10% FBS, 15.4 µM
[22] = RPMI 5 mM glucose + 10% FBS, 46.1 µM
[23] = RPMI 5 mM glucose + 10% dialyzed FBS, 0.000781 µM
[24] = RPMI 5 mM glucose + 10% dialyzed FBS, 0.00234 µM
[25] = RPMI 5 mM glucose + 10% dialyzed FBS, 0.00702 µM
[26] = RPMI 5 mM glucose + 10% dialyzed FBS, 0.0211 µM
[27] = RPMI 5 mM glucose + 10% dialyzed FBS, 0.0632 µM
[28] = RPMI 5 mM glucose + 10% dialyzed FBS, 0.19 µM
[29] = RPMI 5 mM glucose + 10% dialyzed FBS, 0.569 µM
[30] = RPMI 5 mM glucose + 10% dialyzed FBS, 1.71 µM
[31] = RPMI 5 mM glucose + 10% dialyzed FBS, 5.12 µM
[32] = RPMI 5 mM glucose + 10% dialyzed FBS, 15.4 µM
[33] = RPMI 5 mM glucose + 10% dialyzed FBS, 46.1 µM

| Structure (SMILES) | cell viability [1] [%] | cell viability [2] [%] | cell viability [3] [%] | cell viability [4] [%] | cell viability [5] [%] | cell viability [6] [%] | cell viability [7] [%] | cell viability [8] [%] | cell viability [9] [%] | cell viability [10] [%] | cell viability [11] [%] | cell viability [12] [%] | cell viability [13] [%] | cell viability [14] [%] | cell viability [15] [%] | cell viability [16] [%] | cell viability [17] [%] | cell viability [18] [%] | cell viability [19] [%] | cell viability [20] [%] | cell viability [21] [%] | cell viability [22] [%] | cell viability [23] [%] | cell viability [24] [%] | cell viability [25] [%] | cell viability [26] [%] | cell viability [27] [%] | cell viability [28] [%] | cell viability [29] [%] | cell viability [30] [%] | cell viability [31] [%] | cell viability [32] [%] | cell viability [33] [%] |
| --- | --- | --- | --- | --- | --- | --- | --- | --- | --- | --- | --- | --- | --- | --- | --- | --- | --- | --- | --- | --- | --- | --- | --- | --- | --- | --- | --- | --- | --- | --- | --- | --- | --- |
| C[C@@H]1[C@H]\2[C@H](O)[C@H]3[C@H](N(C)C)\C(=C(C(N)=O)/C(=O)[C@@]3(O)\C(=C2C(=O)C4=C(O)C=CC=C14)O)O | 114 | 122 | 125 | 127 | 129 | 126 | 131 | 129 | 127 | 126 | 113 | – | – | – | – | – | – | – | – | – | – | – | – | – | – | – | – | – | – | – | – | – | – |
| CC(C(C)N1CC(=O)NC(=O)C1)N1CC(=O)NC(=O)C1 (configuration not stated) | 117 | 123 | 121 | 119 | 131 | 130 | 130 | 117 | 109 | 102 | 89.6 | – | – | – | – | – | – | – | – | – | – | – | – | – | – | – | – | – | – | – | – | – | – |
| CN1CCc2c(c3ccccc3n2Cc2ccc(C(=O)NO)cc2)C1 | 84.8 | 83.9 | 87.7 | 89.6 | 91.5 | 85 | 89.6 | 83.6 | 87.5 | 68 | 66.9 | 81 | 77.4 | 78.6 | 80.7 | 84.1 | 73.1 | 79.9 | 83.4 | 84.2 | 64.1 | 56.8 | 82.2 | 81.3 | 83.1 | 78.4 | 81.9 | 78 | 83.3 | 77.8 | 86.5 | 63.3 | 68.1 |
| CCOC(=O)c1c(C)n(C)c2ccc(O)cc12 | 122 | 124 | 124 | 123 | 128 | 122 | 127 | 123 | 107 | 109 | 90.3 | – | – | – | – | – | – | – | – | – | – | – | – | – | – | – | – | – | – | – | – | – | – |
| CN1C(=O)c2sccc2N(C)c2nc(Nc3ccc([S+](N)(=O)[O-])cc3)ncc21 | 91.5 | 94 | 95.1 | 102 | 101 | 96.2 | 92.6 | 75.7 | 11.4 | 5.78 | 5.18 | 96.2 | 96 | 98.3 | 93.4 | 99.7 | 99.7 | 90 | 73.6 | 17.2 | 13.1 | 6.79 | 98.2 | 103 | 104 | 99.4 | 98.2 | 88.9 | 95.8 | 64.9 | 23.4 | 14.5 | 9.34 |
| CCCOc1ccc(C(=O)OCCN(CC)CC)cc1N | 106 | 116 | 79.2 | 113 | 122 | 119 | 122 | 123 | 125 | 119 | 118 | 104 | 130 | 69.2 | 112 | 129 | 128 | 130 | 126 | 133 | 115 | 120 | 100 | 115 | 72.8 | 111 | 125 | 123 | 123 | 122 | 130 | 127 | 110 |
| Cc1cc(Nc2ncc3c(n2)N(C)C(=O)N(c2cc(NC(=O)c4cccc(C(F)(F)F)c4)ccc2C)C3)n(C)n1 | 116 | 114 | 117 | 120 | 119 | 120 | 114 | 90.4 | 79.3 | 55.8 | 7.23 | 106 | 120 | 124 | 123 | 133 | 115 | 105 | 73.5 | 66.5 | 52.5 | 5.53 | 111 | 119 | 116 | 132 | 124 | 122 | 111 | 76.1 | 72.1 | 50.9 | 5.1 |
| C[C@]12CCC3c4ccc(O)cc4CCC3C1CCC2=O (some centres not stated) | 92 | 95.3 | 101 | 98.9 | 102 | 97.9 | 84.6 | 94 | 90.2 | 73.7 | 83.9 | 88.2 | 95.4 | 96.8 | 103 | 102 | 100 | 98.8 | 95.5 | 87.4 | 72.6 | 83.9 | 86.9 | 93.6 | 86.2 | 87 | 87.7 | 88.4 | 97.9 | 80.7 | 72.8 | 54.4 | 66.4 |
| Nc1nc(F)nc2c1ncn2[C@@H]1O[C@H](COP(=O)(O)O)[C@@H](O)[C@@H]1O | 119 | 120 | 121 | 121 | 130 | 124 | 120 | 133 | 128 | 84.2 | 52.2 | 122 | 121 | 132 | 129 | 122 | 142 | 126 | 141 | 137 | 110 | 74.8 | 127 | 123 | 123 | 123 | 130 | 138 | 124 | 126 | 129 | 99.5 | 62.1 |
| CC(C)(N)C(=O)N[C@H](COCc1ccccc1)C(=O)N1CCC2(CC1)CN([S+](C)(=O)[O-])c1ccccc12 | – | – | – | – | – | – | – | – | – | – | – | – | – | – | – | – | – | – | – | – | – | – | 124 | 122 | 141 | 126 | 125 | 124 | 123 | 114 | 109 | 91.8 | 20.3 |
